Test results as given in PubChem BioAssay (NCI).
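In this assay, cells in 96-well plates receive the compound at five concentrations for 48 hours. Endpoints are linearly interpolated between the surrounding concentrations. TGI is the concentration that stops growth completely.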

Columns and labels:
Assay in all cases: NCI-60 cell line screen, 48 h
DU-145 prostate = test system: DU-145 prostate
IGROV1 ovarian = test system: IGROV1 ovarian
MALME-3M melanoma = test system: MALME-3M melanoma
MCF7 breast = test system: MCF7 breast
MDA-MB-435 = test system: MDA-MB-435
MDA-N = test system: MDA-N
MOLT-4 leukemia = test system: MOLT-4 leukemia
NCI-H226 lung = test system: NCI-H226 lung
NCI-H23 lung = test system: NCI-H23 lung
NCI-H460 lung = test system: NCI-H460 lung
OVCAR-3 ovarian = test system: OVCAR-3 ovarian
OVCAR-4 ovarian = test system: OVCAR-4 ovarian
PC-3 prostate = test system: PC-3 prostate
SF-295 CNS = test system: SF-295 CNS
SK-OV-3 ovarian = test system: SK-OV-3 ovarian
SN12C renal = test system: SN12C renal
SW-620 colon = test system: SW-620 colon
T-47D breast = test system: T-47D breast
UO-31 renal = test system: UO-31 renal

SMILES | TGI (DU-145 prostate) [µM] | TGI (IGROV1 ovarian) [µM] | TGI (MALME-3M melanoma) [µM] | TGI (MCF7 breast) [µM] | TGI (MDA-MB-435) [µM] | TGI (MDA-N) [µM] | TGI (MOLT-4 leukemia) [µM] | TGI (NCI-H226 lung) [µM] | TGI (NCI-H23 lung) [µM] | TGI (NCI-H460 lung) [µM] | TGI (OVCAR-3 ovarian) [µM] | TGI (OVCAR-4 ovarian) [µM] | TGI (PC-3 prostate) [µM] | TGI (SF-295 CNS) [µM] | TGI (SK-OV-3 ovarian) [µM] | TGI (SN12C renal) [µM] | TGI (SW-620 colon) [µM] | TGI (T-47D breast) [µM] | TGI (UO-31 renal) [µM]
C1=NCCNCCN=Cc2ccc(cc2)OCc2cccc(n2)COc2ccc1cc2 | > 100 | > 100 | > 100 | > 100 | > 100 | > 100 | > 100 | > 100 | > 100 | > 100 | > 100 | > 100 | > 100 | > 100 | > 100 | > 100 | > 100 | > 100 | > 100
CC(=O)OCC(OC(C)=O)C(OC(C)=O)C(C=NN(C(C)=O)S(=O)(=O)c1ccc(/C=C2\NC(=O)NC2=O)cc1)OC(C)=O (stereo not drawn) | > 100 | > 100 | > 100 | > 100 | > 100 | > 100 | > 100 | > 100 | > 100 | > 100 | > 100 | > 100 | > 100 | > 100 | > 100 | > 100 | > 100 | > 100 | > 100
O=C(CN1CCNCCN(CC(=O)N2CCCCC2)CCNCC1)N1CCCCC1 | > 100 | > 100 | > 100 | > 100 | > 100 | > 100 | > 100 | > 100 | – | > 100 | > 100 | > 100 | > 100 | > 100 | > 100 | > 100 | > 100 | > 100 | > 100
COc1ccc(NC(=O)CC(=O)N2N=C(C)C(N=Nc3ccc(S(=O)(=O)c4ccc(N=NC5C(=O)N(C(=O)CC(=O)Nc6ccc(OC)cc6)N=C5C)cc4)cc3)C2=O)cc1 (stereo not drawn) | > 100 | > 100 | > 100 | > 100 | > 100 | > 100 | > 100 | > 100 | > 100 | > 100 | > 100 | > 100 | > 100 | > 100 | > 100 | > 100 | > 100 | > 100 | > 100
Cc1cc(C)c(C2=NOC(c3ccccc3)(c3cc(=O)n(-c4ccccc4)s3)O2)c(C)c1 (stereo not drawn) | > 100 | > 100 | 40.1 | 37.2 | > 100 | > 100 | > 100 | 57.1 | 53.4 | > 100 | – | > 100 | > 100 | > 100 | > 100 | > 100 | > 100 | 44 | 47.1
CSc1nc(N)c(NC2OC(CO)C(O)C2O)c(=O)[nH]1 (stereo not drawn) | > 100 | > 100 | > 100 | > 100 | > 100 | > 100 | > 100 | > 100 | – | > 100 | > 100 | > 100 | > 100 | > 100 | > 100 | > 100 | > 100 | > 100 | > 100
COc1cc(OC)c(OC)cc1/C=N/N=C(\N)NO | > 100 | > 100 | > 100 | > 100 | > 100 | > 100 | > 100 | > 100 | > 100 | > 100 | > 100 | > 100 | > 100 | > 100 | > 100 | > 100 | > 100 | > 100 | > 100
CCCCCC/C=C\CCCCCCCCCc1cccc(O)c1C(=O)O | > 100 | > 100 | > 100 | > 100 | > 100 | > 100 | > 100 | > 100 | > 100 | > 100 | > 100 | > 100 | > 100 | > 100 | > 100 | > 100 | > 100 | > 100 | > 100
O=C(NCCCCCCCCNC(=O)c1cc(-c2ccccc2)nc2ccccc12)c1cc(-c2ccccc2)nc2ccccc12 | > 100 | > 100 | > 100 | > 100 | > 100 | > 100 | > 100 | > 100 | > 100 | > 100 | > 100 | > 100 | > 100 | > 100 | > 100 | > 100 | > 100 | > 100 | > 100
COc1nc2c(c(=O)n1C)N(C(C)=O)C1C(N2)OCC(OC(C)=O)C1OC(C)=O (stereo not drawn) | > 10 | > 10 | > 10 | > 10 | > 10 | > 10 | > 10 | > 10 | > 10 | > 10 | > 10 | > 10 | > 10 | > 10 | > 10 | > 10 | > 10 | > 10 | > 10
COC(=O)C1CCC(=O)N1CN(C(C)=O)c1ccccc1 (stereo not drawn) | > 100 | > 100 | > 100 | > 100 | > 100 | > 100 | > 100 | > 100 | > 100 | > 100 | > 100 | > 100 | > 100 | > 100 | > 100 | > 100 | > 100 | > 100 | > 100
Cc1ccc(-c2nc3ccc(Cl)cc3[nH]2)cc1 | > 100 | > 100 | > 100 | > 100 | > 100 | > 100 | > 100 | > 100 | > 100 | > 100 | > 100 | > 100 | > 100 | > 100 | > 100 | > 100 | > 100 | > 100 | > 100
C=Cc1c(C)c(OC)cc2c1Oc1ccc(OC)c(C)c1CC2 | > 100 | > 100 | > 100 | > 100 | > 100 | > 100 | > 100 | > 100 | > 100 | > 100 | – | > 100 | > 100 | > 100 | > 100 | > 100 | > 100 | > 100 | > 100
